Patent US20240239801A1, “PYRIMIDO[5,4,D]PYRIMIDINE COMPOUNDS, COMPOSITIONS COMPRISING THEM AND USES THEREOF” (Université de Montréal, priority 2021, published 2024)
Where two headings read alike, the source gives them in different places.

Tests used:
Assay in all cases: Proliferation inhibition, CellTiter-Glo
Format in all cases: cell-based, human
SW620 = conditions: Table D-2, 3 days, read-out: SW620 Prolif. EC50
Procedure: (§1) All cancer cell lines (A375, A101D, A2058, RKO, HT29 SK-MEL 30, IPC298, HepG2, HCT-116, Lovo, SW620, SW480, NCI-H358, NCI-H2122, Calu-6, NCIH2087, NCIH1755, NCIH1666 and Mewo) were obtained from ATCC and cultured in RPMI-1640 medium (Gibco) supplemented with 5% heat inactivated fetal bovine serum (FBS, Wisent) at 37° C. under 5% CO2. Cells were maintained in T175 flasks (Greiner). They were passaged by removing the culture medium, washing once in 10 mL of room temperature Phosphate Buffered Saline (PBS; Wisent) and incubating at 37° C. with 2 mL of 0.05% Trypsin (Thermo-Fisher). Trypsin was then inactivated by adding complete growth medium and the cells were then replated in a T175 culture dish at the appropriate dilution. All cell lines were routinely tested for mycoplasma contamination. Tissue type and mutational status of each cell line can be found in Table B.
(§2) CellTiter-Glo® viability analysis was conducted on cells plated in […] of complete RPMI-1640 growth medium in 96-well flat-bottomed white opaque plates (Greiner or Corning) at a density indicated in Table E (for each CCL, number of cells plated per well of a 96-well plate to perform the CellTiter-Glo® cell viability assay). The cell density in cells/cm^2 would correspond to cell number divided by the area of one well of a 96-well plate (0.32 cm^2). Cells were maintained overnight at 37° C. under 5% CO2 before treatment with compounds' dilution series for 3 days.
(§3) In a dilution series 100 μL/well of test substance dilution prepared in complete RPMI-1640 growth media was added to the cells plated initially in 100 μL of growth media. The dilution series is selected so that ten concentrations cover a range from 30 μM or 10 μM to […]. If necessary (as in the case of A375 cells, which were more sensitive to the compounds) the initial concentration of 10 μM is lowered to 1 μM and further dilution is carried out accordingly. The final concentration of DMSO in the assay is set to 0.5%.
(§4) After 3 days of incubation, the growth media were removed by aspiration and 60 μL of diluted CellTiter-Glo® reagent (10 μL CellTiter-Glo® reagent+50 μL of PBS) was added to each well. Cells were allowed to lyse and to equilibrate in CellTiter-Glo® reagent by 5 min incubation on a plate shaker followed by 10 min incubation at room temperature. Luminescence signals were then acquired on a Synergy Neo2 plate reader (Biotek).
(§5) The effect of each compound dilution on the proliferation of cancer cell lines was expressed in % inhibition and calculated as follows. An internal 100% inhibition control (1 μM of trametinib; cat. No. HY-10999; MedChem Express; CAS No. 871700-17-3) was included in each plate and used as a measure of CellTiter-Glo® signal background. The value obtained for trametinib was subtracted from each data point. The average of DMSO (vehicle) controls (set as 0% inhibition) was established and used to calculate % inhibition:
(§6) The ability of each compound to inhibit proliferation was expressed as a EC50 value obtained by plotting the effect values for each data point of a dilution series and fitting the obtained curves using a log(agonist) versus response−variable slope (four parameters) function using GraphPadPrism (V7.0) or Dotmatics Screening Ultra platform.

HepG2 = conditions: Table D-1, 3 days, read-out: HepG2 Prolif. EC50
Procedure: as §1, §2, §3, §4, §5, §6

Calu6 = conditions: Table D-2, 3 days, read-out: Calu6 Prolif. EC50
Procedure: as §1, §2, §3, §4, §5, §6

A375 = conditions: Table D-1, 3 days, read-out: A375 Prolif. EC50
Procedure: as §1, §2, §3, §4, §5, §6

NCIH1755 = conditions: Table D-2, 3 days, read-out: NCIH1755 Prolif. EC50
Procedure: as §1, §2, §3, §4, §5, §6

SK-MEL30 = conditions: Table D-1, 3 days, read-out: SK-MEL30 Prolif. EC50
Procedure: as §1, §2, §3, §4, §5, §6

A101D = conditions: Table D-1, 3 days, read-out: A101D Prolif. EC50
Procedure: as §1, §2, §3, §4, §5, §6

HT-29 = conditions: Table D-1, 3 days, read-out: HT-29 Prolif. EC50
Procedure: as §1, §2, §3, §4, §5, §6

NCIH2087 = conditions: Table D-2, 3 days, read-out: NCIH2087 Prolif. EC50
Procedure: as §1, §2, §3, §4, §5, §6

NCI-H358 = conditions: Table D-2, 3 days, read-out: NCI-H358 Prolif. EC50
Procedure: as §1, §2, §3, §4, §5, §6

Lovo = conditions: Table D-2, 3 days, read-out: Lovo Prolif. EC50
Procedure: as §1, §2, §3, §4, §5, §6

Mewo = conditions: Table D-2, 3 days, read-out: Mewo Prolif. EC50
Procedure: as §1, §2, §3, §4, §5, §6

A2058 = conditions: Table D-1, 3 days, read-out: A2058 Prolif. EC50
Procedure: as §1, §2, §3, §4, §5, §6

RKO = conditions: Table D-1, 3 days, read-out: RKO Prolif. EC50
Procedure: as §1, §2, §3, §4, §5, §6

SW480 = conditions: Table D-2, 3 days, read-out: SW480 Prolif. EC50
Procedure: as §1, §2, §3, §4, §5, §6

NCI-H2122 = conditions: Table D-2, 3 days, read-out: NCI-H2122 Prolif. EC50
Procedure: as §1, §2, §3, §4, §5, §6

IPC298 = conditions: Table D-1, 3 days, read-out: IPC298 Prolif. EC50
Procedure: as §1, §2, §3, §4, §5, §6

HCT116 = conditions: Table D-1, 3 days, read-out: HCT116 Prolif. EC50
Procedure: as §1, §2, §3, §4, §5, §6

Row | EC50 (SW620; Homo sapiens, SW-620, 72 h) [µM] | EC50 (HepG2; Homo sapiens, HepG2, 72 h) [µM] | EC50 (Calu6; Homo sapiens, Calu-6, 72 h) [µM] | EC50 (A375; Homo sapiens, A-375, 72 h) [µM] | EC50 (SW620) [µM] | EC50 (HepG2) [µM] | EC50 (Calu6) [µM] | EC50 (A375) [µM] | EC50 (SK-MEL30) [µM] | EC50 (HT-29) [µM] | EC50 (NCI-H358) [µM] | EC50 (Lovo) [µM] | EC50 (SW480) [µM] | EC50 (NCI-H2122) [µM] | EC50 (HCT116) [µM] | SMILES | EC50 (A101D) [µM] | EC50 (NCIH2087) [µM] | EC50 (Mewo) [µM] | EC50 (A2058) [µM] | EC50 (RKO) [µM] | also measured
1 | > 3 | < 0.3 | > 3 | < 0.3 |  |  |  |  |  |  |  |  |  |  |  | Cc1c(F)cccc1S(=O)(=O)Nc1ccc(F)c(Nc2ncnc3cnc(-n4cnc5c(-c6cccnc6)cccc54)nc23)c1F [Example 114] |  |  |  |  |  | EC50 (NCIH1755; Homo sapiens, NCI-H1755, 72 h): > 3 µM; EC50 (SK-MEL30; Homo sapiens, SK-MEL-30, 72 h): 0.3 to 3 µM; EC50 (A101D; Homo sapiens, A101D, 72 h): < 0.3 µM; EC50 (HT-29; Homo sapiens, HT-29, 72 h): < 0.3 µM; EC50 (NCIH2087; Homo sapiens, NCI-H2087, 72 h): 0.3 to 3 µM; EC50 (NCI-H358; Homo sapiens, NCI-H358, 72 h): < 0.3 µM; EC50 (Lovo; Homo sapiens, LoVo, 72 h): < 0.3 µM; EC50 (Mewo; Homo sapiens, MeWo, 72 h): 0.3 to 3 µM; EC50 (A2058; Homo sapiens, A2058, 72 h): < 0.3 µM; EC50 (RKO; Homo sapiens, RKO, 72 h): < 0.3 µM; EC50 (SW480; Homo sapiens, SW480, 72 h): > 3 µM; EC50 (NCI-H2122; Homo sapiens, NCI-H2122, 72 h): > 3 µM; EC50 (IPC298; Homo sapiens, IPC-298, 72 h): < 0.3 µM; EC50 (HCT116; Homo sapiens, HCT-116, 72 h): 0.3 to 3 µM
2 |  |  |  |  | 0.3 to 3 | < 0.3 | 0.3 to 3 | < 0.3 | < 0.3 | < 0.3 | < 0.3 | < 0.3 | 0.3 to 3 | 0.3 to 3 | 0.3 to 3 | COc1ccc(S(=O)(=O)Nc2ccc(F)c(Nc3ncnc4cnc(-n5cnc6c(N)cccc65)nc34)c2F)c(C)c1Cl [Example 112] | < 0.3 | 0.3 to 3 | 0.3 to 3 | < 0.3 | < 0.3 | 
3 | 0.3 to 3 | < 0.3 | < 0.3 | < 0.3 |  |  |  |  |  |  |  |  |  |  |  | Cc1ccc2c(Nc3cccc(Cl)c3F)nccc2c1NC(=O)c1csc2c(N)ncnc12 [Belvarafenib, reference compound] |  |  |  |  |  | EC50 (NCIH1755; Homo sapiens, NCI-H1755, 72 h): > 3 µM; EC50 (SK-MEL30; Homo sapiens, SK-MEL-30, 72 h): < 0.3 µM; EC50 (HT-29; Homo sapiens, HT-29, 72 h): < 0.3 µM; EC50 (NCIH2087; Homo sapiens, NCI-H2087, 72 h): < 0.3 µM; EC50 (NCI-H358; Homo sapiens, NCI-H358, 72 h): 0.3 to 3 µM; EC50 (Lovo; Homo sapiens, LoVo, 72 h): < 0.3 µM; EC50 (Mewo; Homo sapiens, MeWo, 72 h): 0.3 to 3 µM; EC50 (RKO; Homo sapiens, RKO, 72 h): < 0.3 µM; EC50 (SW480; Homo sapiens, SW480, 72 h): 0.3 to 3 µM; EC50 (NCI-H2122; Homo sapiens, NCI-H2122, 72 h): 0.3 to 3 µM; EC50 (IPC298; Homo sapiens, IPC-298, 72 h): < 0.3 µM; EC50 (HCT116; Homo sapiens, HCT-116, 72 h): 0.3 to 3 µM
4 |  |  |  |  | 0.3 to 3 | < 0.3 | < 0.3 | < 0.3 | < 0.3 | < 0.3 | < 0.3 | < 0.3 | 0.3 to 3 | 0.3 to 3 | < 0.3 | Cc1c(F)cccc1S(=O)(=O)Nc1ccc(F)c(Nc2ncnc3cnc(-n4cc(C(=O)N(C)Cc5ccncc5)c5ccccc54)nc23)c1F [Example 98] | < 0.3 | < 0.3 | < 0.3 | < 0.3 | < 0.3 | EC50 (NCIH1755): < 0.3 µM; EC50 (IPC298): < 0.3 µM
5 |  |  |  |  | 0.3 to 3 | < 0.3 | 0.3 to 3 | < 0.3 | < 0.3 | < 0.3 | < 0.3 | < 0.3 | 0.3 to 3 | 0.3 to 3 | 0.3 to 3 | O=S(=O)(Nc1ccc(F)c(Nc2ncnc3cnc(-n4cnc5c(N6CCC7(CCCO7)CC6)cccc54)nc23)c1F)c1cccc(Cl)c1Cl [Example 129] | < 0.3 | 0.3 to 3 | < 0.3 | < 0.3 | < 0.3 | EC50 (NCIH1755): 0.3 to 3 µM; EC50 (IPC298): < 0.3 µM
